Assays:
VK2/E6E7 cells [1] = assay: ROS generation by DCFH-DA flow cytometry; format: cell-based, human
Procedure: (§1) To assess the inhibitory effect of fraxetin on ROS generation in endometrial cells, the inventors used flow cytometry to measure ROS levels. In brief, endometriosis cells were stained with DCFH-DA (final concentration 10 μM) for 30 minutes and treated with 50 μM fraxetin in experimental groups, with or without 2 mM N-acetylcysteine (NAC; Cat No. A0737, Sigma), in a 37° C. incubator. Afterward, the cells were washed with PBS, and ROS levels were detected by measuring fluorescence DCF via flow cytometry.

End1/E6E7 cells [2] = assay: ROS generation by DCFH-DA flow cytometry; format: cell-based, human
Procedure: as §1

VK2/E6E7 cells [3] = assay: Icam1/Vcam1 expression in endometriosis cell line; format: cell-based, human
Procedure: (§2) The endometrial cell lines VK2/E6E7, End1/E6E7, and normal endometrial stromal cell line T-HESC were purchased from ATCC. The cells were cultured in keratinocyte serum-free medium or DMEM/F12 1:1 medium containing 10% FBS for monolayer culture. Endometrial cell lines (VK2/E6E7,End1/E6E7) and normal cells were cultured at 37° C. in a 5% CO2 incubator.

End1/E6E7 cells [4] = assay: Icam1/Vcam1 expression in endometriosis cell line; format: cell-based, human
Procedure: as §2

endometrial cells = assay: Western blot analysis (cell line not stated); format: cell-based, human
Procedure: To analyze protein expression related to the development of endometriosis following fraxetin treatment, the inventors conducted western blot analysis.
Briefly, endometrial cells were treated with fraxetin in a dose-dependent manner or in combination with signaling pathway inhibitors. Total proteins were extracted from the treated cells, and protein quantification was performed using the Bradford protein assay (Bio-Rad, Hercules, CA, USA). The extracted proteins were then denatured at 95° C. for 5 minutes and subjected to electrophoresis on a 10% SDS/PAGE gel before being transferred to a nitrocellulose membrane. The membrane was subsequently incubated with primary and secondary antibodies, and target protein expression was analyzed using chemiluminescence detection reagents (Supersignal West Pico, Pierce, Rockford, IL, USA) with the ChemiDoc EQ system and Quantity One software (Bio-Rad).

endometriotic lesions [5] = assay: Endometriosis animal model, lesion size and histology; format: in vivo, C57/BL6 mice; conditions: fraxetin 30mg/kg orally for four weeks
Procedure: (§3) Seven-week-old female C57/BL6 mice were purchased from DBL (Eumseong, South Korea). After a 7-day acclimation period, they were subcutaneously injected with 2 mg/50 μL of progesterone two days before surgery. After anesthetizing the mice, the […] was excised and autografted onto the peritoneum to induce endometriosis. After culturing for two weeks, the mice were randomly assigned to groups and administered either a vehicle as the control, fraxetin at 30mg/kg, or dienogest at 1 mg/kg orally for four weeks.
For histological analysis, tissues were lesion prepared as paraffin blocks and sectioned onto slides. Hematoxylin-eosin (H&E) staining was performed using Mayer's hemalum solution and a Prussian Blue staining kit (Cat. Ab150674, Abcam) histological analysis and for immunohistochemistry. Immunohistochemistry was conducted using an avidin-biotin complex kit (Cat. PK-4001, Vector Laboratories).

End1/E6E7 cells [6] = assay: Mitochondrial membrane potential by JC-1 staining; format: cell-based, human; conditions: End1/E6E7
Procedure: To examine changes in mitochondrial membrane potential (MMP) in endometrial cells induced by fraxetin, the inventors used a mitochondria staining kit (Cat no: CS0390, Sigma-Aldrich) to measure MMP.
In brief, End1/E6E7 and […] endometrial cell lines were cultured in 6-well plates, treated with fraxetin in a dose-dependent manner (0 μM, 5 μM, 10 μM, 20 μM, 50 μM, 100 μM), and incubated at 37° C. in a 5% CO2 incubator for 48 hours. Afterward, the cells were detached using trypsin, centrifuged to obtain cell pellets, resuspended in JC-1 staining solution, and incubated at 37° C. in a 5% CO2 incubator for 20 minutes. The stained cells were centrifuged again, washed with 1X JC-1 staining buffer, and analyzed using flow cytometry to assess changes in mitochondrial membrane potential.

endometriotic lesions [7] = assay: Gene expression in endometriotic lesion tissue of the animal model; format: in vivo, C57/BL6 mice
Procedure: as §3

VK2/E6E7 cells [8] = assay: Intracellular calcium concentration (fluo-4 staining); format: cell-based, human
Procedure: (§4) To examine intracellular or mitochondrial calcium concentration changes in endometrial cells induced by fraxetin, the inventors conducted experiments using 3 μM fluo-4 acetoxymethyl ester (AM) (Invitrogen) and 3 μM rhod-2.
(§5) First, cells were cultured in 6-well plates, treated with fraxetin in a dose-dependent manner (0 μM, 5 μM, 10 μM, 20 μM, 50 μM, 100 μM), and incubated at 37° C. in a 5% CO2 incubator for 48 hours. The cells were then detached using trypsin, washed with PBS, and stained with 3 μM fluo-4 or 3 μM rhod-2 for 20 minutes at 37° C. in a 5% CO2 incubator. After staining, the cells were washed with PBS, transferred to FACS tubes, and analyzed by flow cytometry to measure intracellular or mitochondrial calcium concentrations.

End1/E6E7 cells [9] = assay: as above; format: cell-based, human
Procedure: as §4, §5

VK2/E6E7 cells [10] = assay: BrdU cell proliferation assay; format: cell-based, human; conditions: VK2/E6E7, 100 μM, 48 hours
Procedure: (§6) To examine the effects of fraxetin on cell proliferation, the inventors performed a BrdU cell proliferation assay.
(§7) First, 5×10^3 cells of VK2/E6E7, End1/E6E7, and T-HESC were each distributed in 100 μL of medium in 96-well plates.
(§8) Fraxetin was then administered in a dose-dependent manner (0μM, 5 μM, 10 μM, 20 uM, 50 μM, 100 uM) and cultured for 48 hours, followed by the BrdU assay using a BrdU kit (Cat No: 1167229001, Roche) according to the manufacturer's instructions.
(§9) After 48 hours of incubation, 10 μM BrdU (Bromodeoxyuridine) was added to each well and incubated at 37° C. in a 5% CO2 incubator for 2 hours. The cells were then fixed, reacted with anti-BrdU-POD solution at room temperature for 90 minutes, and washed three times. Finally, 100 μL of 3, 3′, 5, 5′-tetramethylbenzidine substrate was added, and absorbance was measured at wavelengths of 370 nm and 492 nm to analyze cell proliferation.

End1/E6E7 cells [11] = assay: BrdU cell proliferation assay; format: cell-based, human; conditions: End1/E6E7, all concentrations (5-100 μM), 48 hours
Procedure: as §6, §7, §8, §9

In the case of `COc1cc2ccc(=O)oc2c(O)c1O` [fraxetin], the “relative ROS generation” value (VK2/E6E7 cells [1]; VK2/E6E7, Example 7 comparison fraxetin vs dienogest) is reported as over 200%, the “ROS generation compared to control” value (VK2/E6E7 cells [1]; VK2/E6E7, fraxetin-treated) is reported as “up to 1.5 fold” and the “relative ROS generation” value (End1/E6E7 cells [2]; End1/E6E7, Example 7 comparison fraxetin vs dienogest) is reported as “over 150%”. For the same compound, the “ROS generation compared to control” value (End1/E6E7 cells [2]; End1/E6E7, fraxetin-treated) was “up to 1.5 fold”, the “expression levels of Icam1 and Vcam1” value (VK2/E6E7 cells [3]) was “significant decrease” and the “expression levels of Icam1 and Vcam1” value (End1/E6E7 cells [4]) was “significant decrease”. For the same compound, the “level of GRP78 compared to control” value (endometrial cells; 20 μM and 50 μM fraxetin) was 1.9 fold, the “JNK phosphorylation (remaining)” value (endometrial cells; 50 μM fraxetin) was “below 50%” and the eIF2α phosphorylation (endometrial cells; fraxetin-treated) was “tended to increase”. For the same compound, the “immune cell infiltration (tissue after iron staining)” value (endometriotic lesions [5]) was “increase”, the “size of endometriotic lesions” value (endometriotic lesions [5]; vs vehicle control) was “significantly reduced” and the “relative membrane potential loss rate increase” value (End1/E6E7 cells [6]) was 1.8 fold. The “expression of adhesion-related genes (Icam1, Vcam1, Itga1, Itga5)” value (endometriotic lesions [7]; endometriotic lesions) was “inhibited”, the “expression of apoptosis-related genes (Bak1, Bax, Bad, Casp1)” value (endometriotic lesions [7]; endometriotic lesions) was “increased” and the “expression of endoplasmic reticulum stress-related genes (Hspa5, Elf2s1, Ern1)” value (endometriotic lesions [7]; endometriotic lesions) was “increased”. The “expression of mitochondrial function-related genes (Atp5me, Atp5pb, Atp5po)” value (endometriotic lesions [7]; endometriotic lesions) was “decreased”, the “mRNA expression of inflammation-related genes (Il4, Cxcl15, Il8, Il21, Tnf, Il4ra, Cxcr1, Cxcr2, Il18r, Il21r, Tnfrsfa)” value (endometriotic lesions [7]; endometriotic lesions, compared to control group) was “significantly reduced” and the “expression of Icam1 and Vcam1 within the lesion tissue” value (endometriotic lesions [7]; fraxetin-treated group compared to control group) was “reduced”. For the same compound, the “calcium levels (upregulated to)” value (VK2/E6E7 cells [8]) was 300%, the “calcium levels (upregulated to)” value (End1/E6E7 cells [9]) was 180% and the “reduction of cell proliferation” value (VK2/E6E7 cells [10]) was “approximately 40%”. For the same compound, the “cell proliferation (remaining)” value (End1/E6E7 cells [11]) was “below 50%”.

Source: patent US20250302799A1, “PHARMACEUTICAL COMPOSITION CONTAINING FRAXETIN FOR PREVENTION OR TREATMENT OF ENDOMETRIOSIS” (Research & Business Foundation Sungkyunkwan University, priority 2024, published 2025)
